“Also recorded” adds a separate entry of the source.
Key:
[1] = test system: AKT; assay: Western blotting of total AKT; type: cell-based; details: PC3 cells, 1 μM, 24 h
[2] = test system: P-AKT (S473), P-PRAS40 (T246), P-S6 (S240/244); assay: Western blotting of downstream signaling in PC3 cells; type: cell-based; details: 1 μM, 24 h

Row | SMILES | T-AKT protein level / AKT degradation (western blot, in words) [1] | downstream signaling inhibition (P-AKT, P-PRAS40, P-S6; western blot, in words) [2]
1 | Cc1ncsc1-c1ccc(CNC(=O)[C@@H]2C[C@@H](O)CN2C(=O)[C@@H](NC(=O)CNC(=O)CCc2cccc(-c3ccc4nc(-c5cccnc5N)n(-c5ccc(C6(N)CCC6)cc5)c4n3)c2)C(C)(C)C)cc1 [Compound 11, (2S,4R)-1-((S)-2-(2-(3-(3-(3-(4-(1-Aminocyclobutyl)phenyl)-2-(2-aminopyridin-3-yl)-3H-imidazo[4,5-b]pyridin-5-yl)phenyl)propanamido)acetamido)-3,3-dimethylbutanoyl)-4-hydroxy-N-(4-(4-methylthiazol-5-yl)benzyl)pyrrolidine-2-carboxamide] | completely inactive | 
2 | Cc1ncsc1-c1ccc(CNC(=O)[C@@H]2C[C@@H](O)CN2C(=O)[C@@H](NC(=O)CCNC(=O)CCc2cccc(-c3ccc4nc(-c5cccnc5N)n(-c5ccc(C6(N)CCC6)cc5)c4n3)c2)C(C)(C)C)cc1 [Compound 12, (2S,4R)-1-((S)-2-(3-(3-(3-(3-(4-(1-Aminocyclobutyl)phenyl)-2-(2-aminopyridin-3-yl)-3H-imidazo[4,5-b]pyridin-5-yl)phenyl)propanamido)propanamido)-3,3-dimethylbutanoyl)-4-hydroxy-N-(4-(4-methylthiazol-5-yl)benzyl)pyrrolidine-2-carboxamide] | completely inactive | 
3 | Cc1ncsc1-c1ccc(CNC(=O)[C@@H]2C[C@@H](O)CN2C(=O)[C@@H](NC(=O)CCCCCCCCCCNC(=O)CCc2cccc(-c3ccc4nc(-c5cccnc5N)n(-c5ccc(C6(N)CCC6)cc5)c4n3)c2)C(C)(C)C)cc1 [Compound 20, (2S,4R)-1-((S)-2-(11-(3-(3-(3-(4-(1-Aminocyclobutyl)phenyl)-2-(2-aminopyridin-3-yl)-3H-imidazo[4,5-b]pyridin-5-yl)phenyl)propanamido)undecanamido)-3,3-dimethylbutanoyl)-4-hydroxy-N-(4-(4-methylthiazol-5-yl)benzyl)pyrrolidine-2-carboxamide] | highly effective AKT degraders | 
4 | Cc1ncsc1-c1ccc(CNC(=O)[C@@H]2C[C@@H](O)CN2C(=O)[C@@H](NC(=O)COCC(=O)NCCc2cccc(-c3ccc4nc(-c5cccnc5N)n(-c5ccc(C6(N)CCC6)cc5)c4n3)c2)C(C)(C)C)cc1 [Compound 33, (2S,4R)-1-((S)-2-(2-(2-((3-(3-(4-(1-Aminocyclobutyl)phenyl)-2-(2-aminopyridin-3-yl)-3H-imidazo[4,5-b]pyridin-5-yl)phenethyl)amino)-2-oxoethoxy)acetamido)-3,3-dimethylbutanoyl)-4-hydroxy-N-(4-(4-methylthiazol-5-yl)benzyl)pyrrolidine-2-carboxamide] | effectively induced T-AKT degradation | 
5 | Cc1ncsc1-c1ccc(CNC(=O)[C@@H]2C[C@@H](O)CN2C(=O)[C@@H](NC(=O)CCOCCC(=O)NCCc2cccc(-c3ccc4nc(-c5cccnc5N)n(-c5ccc(C6(N)CCC6)cc5)c4n3)c2)C(C)(C)C)cc1 [Compound 34, (2S,4R)-1-((S)-2-(3-(3-((3-(3-(4-(1-Aminocyclobutyl)phenyl)-2-(2-aminopyridin-3-yl)-3H-imidazo[4,5-b]pyridin-5-yl)phenethyl)amino)-3-oxopropoxy)propanamido)-3,3-dimethylbutanoyl)-4-hydroxy-N-(4-(4-methylthiazol-5-yl)benzyl)pyrrolidine-2-carboxamide] | effectively induced T-AKT degradation | 
6 | Cc1ncsc1-c1ccc(CNC(=O)[C@@H]2C[C@@H](O)CN2C(=O)[C@@H](NC(=O)COCCOCCOCCOCCOCC(=O)NCCc2cccc(-c3ccc4nc(-c5cccnc5N)n(-c5ccc(C6(N)CCC6)cc5)c4n3)c2)C(C)(C)C)cc1 [Compound 40, N^1-(3-(3-(4-(1-Aminocyclobutyl)phenyl)-2-(2-aminopyridin-3-yl)-3H-imidazo[4,5-b]pyridin-5-yl)phenethyl)-N^17-((S)-1-((2S,4R)-4-hydroxy-2-((4-(4-methylthiazol-5-yl)benzyl)carbamoyl)pyrrolidin-1-yl)-3,3-dimethyl-1-oxobutan-2-yl)-3,6,9,12,15-pentaoxaheptadecanediamide] | restored effective AKT degradation activity | 
7 | Cc1ncsc1-c1ccc(CNC(=O)[C@@H]2C[C@@H](O)CN2C(=O)[C@@H](NC(=O)CCOCCOCCOCCOCCOCCC(=O)NCCc2cccc(-c3ccc4nc(-c5cccnc5N)n(-c5ccc(C6(N)CCC6)cc5)c4n3)c2)C(C)(C)C)cc1 [Compound 41, N^1-(3-(3-(4-(1-Aminocyclobutyl)phenyl)-2-(2-aminopyridin-3-yl)-3H-imidazo[4,5-b]pyridin-5-yl)phenethyl)-N^19-((S)-1-((2S,4R)-4-hydroxy-2-((4-(4-methylthiazol-5-yl)benzyl)carbamoyl)pyrrolidin-1-yl)-3,3-dimethyl-1-oxobutan-2-yl)-4,7,10,13,16-pentaoxanonadecanediamide] | restored effective AKT degradation activity | 
8 | Cc1ncsc1-c1ccc(CNC(=O)[C@@H]2C[C@@H](O)CN2C(=O)[C@@H](NC(=O)CCCCCCCC(=O)NCCc2cccc(-c3ccc4nc(-c5cccnc5N)n(-c5ccc(C6(N)CCC6)cc5)c4n3)c2)C(C)(C)C)cc1 [Compound 47, N^1-(3-(3-(4-(1-Aminocyclobutyl)phenyl)-2-(2-aminopyridin-3-yl)-3H-imidazo[4,5-b]pyridin-5-yl)phenethyl)-N^9-((S)-1-((2S,4R)-4-hydroxy-2-((4-(4-methylthiazol-5-yl)benzyl)carbamoyl)pyrrolidin-1-yl)-3,3-dimethyl-1-oxobutan-2-yl)nonanediamide] | particularly effective in T-AKT degradation | particularly effective
9 | Cc1ncsc1-c1ccc(CNC(=O)[C@@H]2C[C@@H](O)CN2C(=O)[C@@H](NC(=O)CCCCCCCCC(=O)NCCc2cccc(-c3ccc4nc(-c5cccnc5N)n(-c5ccc(C6(N)CCC6)cc5)c4n3)c2)C(C)(C)C)cc1 [Compound 48, N^1-(3-(3-(4-(1-Aminocyclobutyl)phenyl)-2-(2-aminopyridin-3-yl)-3H-imidazo[4,5-b]pyridin-5-yl)phenethyl)-N^10-((S)-1-((2S,4R)-4-hydroxy-2-((4-(4-methylthiazol-5-yl)benzyl)carbamoyl)pyrrolidin-1-yl)-3,3-dimethyl-1-oxobutan-2-yl)decanediamide] | particularly effective in T-AKT degradation; also recorded: highly effective AKT degraders | particularly effective
10 | Cc1ncsc1-c1ccc(CNC(=O)[C@@H]2C[C@@H](O)CN2C(=O)[C@@H](NC(=O)CCCCCCCCCC(=O)NCCc2cccc(-c3ccc4nc(-c5cccnc5N)n(-c5ccc(C6(N)CCC6)cc5)c4n3)c2)C(C)(C)C)cc1 [Compound 49, N^1-(3-(3-(4-(1-Aminocyclobutyl)phenyl)-2-(2-aminopyridin-3-yl)-3H-imidazo[4,5-b]pyridin-5-yl)phenethyl)-N^11-((S)-1-((2S,4R)-4-hydroxy-2-((4-(4-methylthiazol-5-yl)benzyl)carbamoyl)pyrrolidin-1-yl)-3,3-dimethyl-1-oxobutan-2-yl)undecanediamide] | particularly effective in T-AKT degradation; also recorded: highly effective AKT degraders | particularly effective

— article PMC9613624 (Journal of medicinal chemistry, 2022)
